Common to all, as to type: in vivo
One assay concerns Matricaria chamomilla. The assay can be described thus: Examples 6-8 herbicidal effect: MATCH. The settings on record: 7 DAA.
For the next assay, the system named is Geranium dissectum. The assay can be described thus: Examples 6-8 herbicidal effect: GERDI. The settings on record: 7 DAA.
Assay [1] deals with Chenopodium album. The assay can be described thus: Examples 6-8 herbicidal effect: CHEAL. As to conditions: 7 DAA.
The subject of a further assay is Echinochloa crus-galli. Kind of assay: Examples 6-8 herbicidal effect: ECHCG. As to conditions: 7 DAA.
A further assay has as its system Poa annua. The assay can be described thus: Examples 6-8 herbicidal effect: POAAN. As to conditions: 7 DAA.
Another assay deals with Veronica persica. The assay can be described thus: Examples 6-8 herbicidal effect: VERPE. The settings on record: 7 DAA.
In a further assay the test system is Solanum nigrum. The assay can be described thus: Examples 6-8 herbicidal effect: SOLNI. The settings on record: 7 DAA.
The next assay has as its system Digitaria sanguinalis. The assay can be described thus: Examples 6-8 herbicidal effect: DIGSA. The settings on record: 7 DAA.
For a further assay, the system named is Setaria verticillata. Kind of assay: Examples 6-8 herbicidal effect: SETVE. As to conditions: 7 DAA.
The subject of another assay is Bassia scoparia. Kind of assay: Field trial post-emergence in maize: KCHSC. As to conditions: 13-14 DAA; # = 2; g a.c./ha: PYR 450, TEM 38, PYR + TEM 450 + 38. The protocol: (§1) Herbicidal activity of herbicide compositions according to the first aspect of the present invention with regard to different types of unwanted vegetation was determined during trials performed on test fields (field trials). Individual compositions comprising pyridate and individual compositions comprising a defined 4-HPPD inhibitor are compared with a herbicide composition according to the invention comprising both pyridate and a defined 4-HPPD inhibitor. The expected activity of the combination of the active compounds pyridate and a defined 4-HPPD inhibitor is calculated according to above mentioned calculation method by Colby, in order to evaluate a synergistic effect between pyridate and a defined 4-HPPD inhibitor.
(§2) Herbicidal activity was determined by applying herbicide compositions on emerged unwanted vegetation on fields where maize was cultivated. Pyridate and a defined 4-HPPD inhibitor were applied as a tank mixture by mixing these active compounds prior to use in a spray tank. The corresponding mixture was in the form of a spray liquor. […] At a specified number of days after application (DAA), the degree of damage to the unwanted vegetation is rated in % of plants of unwanted vegetation that were killed, which was assessed by visually controlling the plants.

The test system of assay [2] is Chenopodium album. Kind of assay: Field trial post-emergence in maize: CHEAL. The settings on record: 13-14 DAA, # = 1. How it is done:
as §1
(§3) Herbicidal activity was determined by applying herbicide compositions on emerged unwanted vegetation on fields where maize was cultivated. Pyridate and a defined 4-HPPD inhibitor were applied as a tank mixture by mixing these active compounds prior to use in a spray tank. The corresponding mixture was in the form of a spray liquor. Besides, spray liquors of individual compositions comprising pyridate and of individual compositions comprising a defined 4-HPPD inhibitor were used. Test plants of unwanted vegetation with a growth stage corresponding to BBCH 10-18 (according to the extended BBCH-scale) were sprayed with the active compound preparations such that particular desired amounts of active compounds are applied per unit area. Spray liquor was diluted with water to arrive at an application volume of 50 to 450 L/ha. At a specified number of days after application (DAA), the degree of damage to the unwanted vegetation is rated in % of plants of unwanted vegetation that were killed, which was assessed by visually controlling the plants.

A further assay relates to Lamium amplexicaule. Kind of assay: Example 6 herbicidal effect: LAMAM. As to conditions: 7 DAA.
Another assay deals with Amaranthus retroflexus. Kind of assay: Field trial post-emergence in maize: AMARE. The settings on record: 13-14 DAA; # = 1; g a.c./ha: PYR 450, TOP 12.4, PYR + TOP 450 + 12.4. The protocol:
as §1, §3

The test system of assay [3] is Brassica rapa Canola cultivars. Kind of assay: Field trial post-emergence in maize: BRSRC. The settings on record: 13-14 DAA; # = 1; g a.c./ha: PYR 450, TOP 12.4, PYR + TOP 450 + 12.4. How it is done:
as §1, §3

A further assay deals with Sinapis arvensis. Kind of assay: Field trial post-emergence in maize: SINAR. The settings on record: 13-14 DAA; # = 1; g a.c./ha: PYR 450, TOP 12.4, PYR + TOP 450 + 12.4. The protocol:
as §1, §2

Where [4] appears, read: g a.c./ha: PYR 300, SCT 300, PYR + SCT 300 + 300.
The mark [5] stands for this setting: g a.c./ha: PYR 450, SCT 450, PYR + SCT 300 + 450.
The mark [6] stands for this setting: g a.c./ha: SMO 800, PYR + NIC 300 + 30.
[7] abbreviates: g a.c./ha: PYR 10, TEM 22, PYR + TEM 10 + 100.
Where [8] appears, read: g a.c./ha: PYR 300, TEM 100, PYR + TEM 300 + 100.
Setting [9] is: g a.c./ha: PYR 900, TEM 44, PYR + TEM 900 + 44.

For `COc1cc(OC)nc(NC(=O)NS(=O)(=O)c2ncccc2C(=O)N(C)C)n1` [NIC, nicosulfuron], the “herbicidal effect (h.e.)” value in the assay with Matricaria chamomilla (NIC 30 g a.c./ha) is given as 6%; in the assay on Geranium dissectum (NIC 30 g a.c./ha) it was 33%; in the assay on Chenopodium album [1] (NIC 30 g a.c./ha), 24%; in the assay with Echinochloa crus-galli (NIC 30 g a.c./ha), 38%; with Poa annua (NIC 30 g a.c./ha), 75%; in the assay with Veronica persica (NIC 30 g a.c./ha), 7%. In addition, the “herbicidal effect (h.e.)” value in the assay with Solanum nigrum (NIC 30 g a.c./ha) is recorded as 17%; in the assay with Digitaria sanguinalis (NIC 30 g a.c./ha) it was 32%; in the assay on Setaria verticillata (NIC 30 g a.c./ha), 37%.
In the case of `CS(=O)(=O)c1ccc(C(=O)C2C(=O)CCCC2=O)c(Cl)c1` [SCT, 2-[2-Chloro-4-(methylsulfonyl)benzoyl]cyclohexane-1,3-dione], the “herbicidal effect (h.e.)” value with Matricaria chamomilla (setting [4]) was found to be 28%; with Matricaria chamomilla (setting [5]) it was 25%; in the assay on Geranium dissectum (setting [4]), 28%; with Geranium dissectum (setting [5]), 50%; in the assay on Chenopodium album [1] (setting [4]) it was 30%; with Chenopodium album [1] (setting [5]) it was 45%. For the same compound, the “herbicidal effect (h.e.)” value is recorded as 58% in the assay on Echinochloa crus-galli (setting [4]); 60% in the assay with Echinochloa crus-galli (setting [5]); 3% in the assay with Poa annua (setting [4]); 3% in the assay on Poa annua (setting [5]); 83% in the assay on Veronica persica (setting [4]); 80% in the assay with Veronica persica (setting [5]). Also, the “herbicidal effect (h.e.)” value was 53% with Solanum nigrum (setting [4]); 53% in the assay with Solanum nigrum (setting [5]); 60% in the assay with Digitaria sanguinalis (setting [4]); 53% with Digitaria sanguinalis (setting [5]); 2% in the assay on Setaria verticillata (setting [4]); 2% in the assay on Setaria verticillata (setting [5]).
As to `CCc1cccc(C)c1N(C(=O)CCl)[C@@H](C)COC` [SMO, S-metolachlor], the “herbicidal effect (h.e.)” value with Matricaria chamomilla (setting [6]) is reported as 0%; in the assay with Geranium dissectum (setting [6]) it was 0%; with Chenopodium album [1] (setting [6]), 1%; with Echinochloa crus-galli (setting [6]) it was 0%; in the assay with Poa annua (setting [6]), 0%; in the assay with Veronica persica (setting [6]), 5%. Further, the results for the “herbicidal effect (h.e.)” value in the assay with Solanum nigrum (setting [6]), in the assay with Digitaria sanguinalis (setting [6]) and in the assay on Setaria verticillata (setting [6]) were 3%, 0% and 0%, respectively.
On to `CS(=O)(=O)c1ccc(C(=O)C2C(=O)CCCC2=O)c(Cl)c1COCC(F)(F)F` [TEM, 2-[2-chloro-4-methylsulfonyl-3-(2,2,2-trifluoroethoxymethyl)benzoyl]cyclohexane-1,3-dione], for which the “herbicidal effect (h.e.)” value in the assay with Bassia scoparia amounted to 40%; in the assay with Matricaria chamomilla (setting [7]), 15%; with Matricaria chamomilla (setting [8]), 100%; in the assay with Matricaria chamomilla (setting [9]) it was 70%; with Geranium dissectum (setting [7]) it was 8%; with Geranium dissectum (setting [8]), 33%. Besides, the “herbicidal effect (h.e.)” value is listed as 20% in the assay on Geranium dissectum (setting [9]); 68% with Chenopodium album [1] (setting [7]); 78% in the assay on Chenopodium album [1] (setting [8]); 96% in the assay with Chenopodium album [1] (setting [9]); 83% in the assay with Echinochloa crus-galli (setting [7]); 85% with Echinochloa crus-galli (setting [8]). For the same compound, the “herbicidal effect (h.e.)” value in the assay with Echinochloa crus-galli (setting [9]) came to 95%; with Poa annua (setting [7]), 10%; with Poa annua (setting [8]) it was 32%; in the assay with Poa annua (setting [9]), 13%; with Veronica persica (setting [7]), 8%; with Veronica persica (setting [8]), 53%. Moreover, the “herbicidal effect (h.e.)” value with Veronica persica (setting [9]) is listed as 53%; with Solanum nigrum (setting [7]), 40%; in the assay with Solanum nigrum (setting [8]), 80%; in the assay on Solanum nigrum (setting [9]), 85%; with Digitaria sanguinalis (setting [7]) it was 59%; in the assay with Digitaria sanguinalis (setting [8]) it was 99%. Moreover, the “herbicidal effect (h.e.)” value in the assay on Digitaria sanguinalis (setting [9]) is 95%; in the assay on Chenopodium album [2] (g a.c./ha: PYR 450, TEM 38, PYR + TEM 450 + 38), 0%; with Setaria verticillata (setting [7]) it was 0%; in the assay on Setaria verticillata (setting [8]), 100%; with Setaria verticillata (setting [9]) it was 18%; in the assay on Lamium amplexicaule (setting [7]), 25%. The “herbicidal effect (h.e.)” value in the assay with Lamium amplexicaule (setting [8]) stood at 40%; in the assay on Lamium amplexicaule (setting [9]) it was 100%.
With `Cc1c(C(=O)c2c[nH]n(C)c2=O)ccc(S(C)(=O)=O)c1C1=NOCC1` [TOP, 4-[3-(4,5-dihydro-1,2-oxazol-3-yl)-2-methyl-4-methylsulfonylbenzoyl]-2-methyl-1H-pyrazol-3-one], the “herbicidal effect (h.e.)” value with Amaranthus retroflexus is reported as 18%; in assay [3], 50%; in the assay on Chenopodium album [2] (g a.c./ha: PYR 450, TOP 12.4, PYR + TOP 450 + 12.4), 1%; in the assay on Sinapis arvensis, 50%.

The record behind these values is patent publication US12396459B2, “Synergistically effective herbicide composition comprising pyridate and at least one defined 4-HPPD inhibitor” (BELCHIM CROP PROTECTION NV, priority 2018, dated 2025).
